According to PubChem BioAssay (NCI):
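Five compound concentrations were applied to cells in 96-well plates for 48 hours; endpoints were derived by simple linear interpolation of the resulting dose-response curve. TGI: total growth inhibition.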

Experiments:
Experiment in all cases: inhibition of tumour cell growth, NCI panel, 48 h
786-0 renal = test system: 786-0 renal
A498 renal = test system: A498 renal
A549 NSCLC = test system: A549 NSCLC
ACHN renal = test system: ACHN renal
BT-549 breast = test system: BT-549 breast
CAKI-1 renal = test system: CAKI-1 renal
COLO 205 colon = test system: COLO 205 colon
DU-145 prostate = test system: DU-145 prostate
HCC-2998 colon = test system: HCC-2998 colon
HCT-116 colon = test system: HCT-116 colon
HCT-15 colon = test system: HCT-15 colon
HOP-92 NSCLC = test system: HOP-92 NSCLC
HS 578T breast = test system: HS 578T breast
HT29 colon = test system: HT29 colon
K-562 leukemia = test system: K-562 leukemia
KM12 colon = test system: KM12 colon
LOX IMVI melanoma = test system: LOX IMVI melanoma
MALME-3M melanoma = test system: MALME-3M melanoma
MCF7 breast = test system: MCF7 breast
MDA-MB-231 breast = test system: MDA-MB-231 breast
MDA-MB-435 = test system: MDA-MB-435
MDA-N = test system: MDA-N
NCI-H226 lung = test system: NCI-H226 lung
NCI-H23 lung = test system: NCI-H23 lung
NCI-H460 lung = test system: NCI-H460 lung
NCI-H522 lung = test system: NCI-H522 lung
NCI/ADR-RES ovarian = test system: NCI/ADR-RES ovarian
OVCAR-4 ovarian = test system: OVCAR-4 ovarian
OVCAR-8 ovarian = test system: OVCAR-8 ovarian
PC-3 prostate = test system: PC-3 prostate
RPMI-8226 leukemia = test system: RPMI-8226 leukemia
SF-268 CNS = test system: SF-268 CNS
SF-295 CNS = test system: SF-295 CNS
SF-539 CNS = test system: SF-539 CNS
SK-MEL-2 melanoma = test system: SK-MEL-2 melanoma
SK-MEL-28 melanoma = test system: SK-MEL-28 melanoma
SK-MEL-5 melanoma = test system: SK-MEL-5 melanoma
SK-OV-3 ovarian = test system: SK-OV-3 ovarian
SN12C renal = test system: SN12C renal
SNB-19 CNS = test system: SNB-19 CNS
SNB-75 CNS = test system: SNB-75 CNS
SW-620 colon = test system: SW-620 colon
T-47D breast = test system: T-47D breast
TK-10 renal = test system: TK-10 renal
U251 CNS = test system: U251 CNS
UACC-257 melanoma = test system: UACC-257 melanoma
UACC-62 melanoma = test system: UACC-62 melanoma
UO-31 renal = test system: UO-31 renal
CCRF-CEM leukemia = test system: CCRF-CEM leukemia
EKVX NSCLC = test system: EKVX NSCLC
HL-60(TB) leukemia = test system: HL-60(TB) leukemia
HOP-62 NSCLC = test system: HOP-62 NSCLC
IGROV1 ovarian = test system: IGROV1 ovarian
M14 melanoma = test system: M14 melanoma
MOLT-4 leukemia = test system: MOLT-4 leukemia
OVCAR-3 ovarian = test system: OVCAR-3 ovarian
OVCAR-5 ovarian = test system: OVCAR-5 ovarian
RXF 393 renal = test system: RXF 393 renal

Measured: TGI

Cn1c2c(c3ccccc31)CC(=S)N1CCCC(CC2O)C1 (stereo not given)
not listed: CCRF-CEM leukemia | EKVX NSCLC | HL-60(TB) leukemia | HOP-62 NSCLC | IGROV1 ovarian | M14 melanoma | MOLT-4 leukemia | OVCAR-3 ovarian | OVCAR-5 ovarian | RXF 393 renal
> 100 µM: all other assays above

Cc1ccc(S(=O)(=O)NC(=O)Nc2ccc(S(N)(=O)=O)cc2S(N)(=O)=O)cc1
not listed: A498 renal | ACHN renal | HCC-2998 colon | NCI-H460 lung | SF-539 CNS | T-47D breast
> 100 µM: all other assays above
